According to article PMC11652885, “Natural volatiles preventing mosquito biting: An integrated screening platform for accelerated discovery of ORco antagonists” (The Journal of Biological Chemistry, 2024):

Tested on: Aedes albopictus
Assay: Hand in a cage repellence bioassay (human hand landing counts)
Type: in vivo
Settings: dose 50 nmole/cm^2; preliminary tests, data not shown

| SMILES | repellence index (RI) |
| --- | --- |
| CC(C)CCCCCCCCC=CCC#N [compound 83, 13-Methyltetradec-3-ene nitrile] | high activities |
| CC1(C)C2CCC1(C)C(O)C2 (centres unmarked) [compound 64, Borneol] | high activities |
| CCCC=CC=CC=O [compound 39, 2,4-Octadienal] | 30%-50% |
| CC(C)C/C=C1/C(=O)OCC1C (centres unmarked) [compound 98, (E)-3-Methyl-2-(3-methylbutyliden)-4-butanolide] | high activities |
| Cc1ccc2ccccc2n1 [compound 66, 2-Methylquinoline] | high activities |
| CC1(C)C2CC3OC3(C)C1C2 (stereo not drawn) [compound 62, α-Pinene oxide] | 30%-50% |
| CC(C)=CCC[C@](C)(O)[C@@H]1CC=C(C)CC1 [compound 77, α-Bisabolol] | 30%-50% |
| CCCCC/C=C\CCO [compound 54, (Z)-3-Nonen-1-ol] | 30%-50% |
